{"source": "paper PMC7389181", "about": "“The interaction with fungal cell wall polysaccharides determines the salt tolerance of antifungal plant defensins” (The Cell Surface, 2019)", "key": {"[1]": {"assay": "Polysaccharide binding (solution depletion) to chitin", "parameters": "species or system shrimp", "details": "one-site binding model", "method": "(§1) Defensin binding to polysaccharides was examined using the protocol described in ([Osmond et al., 2001]) with some modifications. Briefly, the insoluble polysaccharides, yeast β-glucan (Megazyme), chitin from shrimp shells (Sigma), and microcrystalline cellulose (Sigma) were washed twice with water and once with phosphate buffered saline (PBS) and resuspended in PBS at 100 mg/mL. The appropriate volume of polysaccharide suspension was transferred to a 1.5 mL microfuge tube. PBS was added to increase the volume to 47.5 µL followed by defensin (2.5 µL of 0.8 mg/mL in H2O). This mixture was incubated on a rotating wheel at room temperature for 30 min before insoluble polysaccharide was pelleted at 17 000 g. Supernatant (25 µL) was transferred to a clean 1.5 mL microfuge tube, mixed with 5 µL of a 1:9 mix of Bond Breaker reducing agent (ThermoFisher):NuPage LDS Loading Buffer (Invitrogen) and heated to 95 °C for 20 min. Samples (20 µL) were loaded onto a 10% NOVEX Bolt BisTris gel (Life Technologies). Proteins were visualized by staining with RAPIDstain (Calbiochem) and imaged on a ChemiDoc (Bio-Rad). Densitometry was performed on resulting bands using the quantitation tool in ImageLab (V4.0 Bio-Rad) and the abundance of defensin remaining in the supernatant was calculated relative to the no polysaccharide control. Relative binding to the pellet was inferred as the amount of defensin that had been depleted from the supernatant (1-relative binding to pellet). All experiments were performed in triplicate. Kd values were calculated by plotting the relative binding vs the polysaccharide concentration in Prism (V7.0 GraphPad) and using the non-linear regression tool with the one-site binding hyperbola equation."}, "[2]": {"system": "yeast cells with intact cell walls", "assay": "Cell death of intact yeast cells, SYTOX green flow cytometry", "format": "cell-based, Saccharomyces cerevisiae", "method": "(§2) Spheroplasts were prepared as outlined in ([Guthrie and Fink, 2002]) with modifications. Cells were prepared with and without the addition of zymolyase (Sigma) and washed twice with ½ PDB with 1 M sorbitol prior to any defensin treatment. Successful hydrolysis of the cell wall was assessed by pelleting an aliquot of spheroplasts, resuspending in MilliQ H2O and assessing cell lysis. For survival assays, intact cells or spheroplasts were diluted in ½ PDB with 1 M sorbitol to an OD600 = 1. NaD1 (10 µL) at 0, 25, 50 or 100 µM was added to 90 µL of prepared cells or spheroplasts and incubated at 30 °C for 30 min. Serial dilutions of each treatment were plated onto YPD and incubated for 24 h at 30 °C prior to imaging. Assessment of the effect of NaCl on the activity of NaD1 on spheroplasts was conducted as described above except for the addition of 100 mM NaCl to the ½ PDB 1 M sorbitol in the appropriate treatment. The cell death indicator, SYTOX green (ThermoFisher), was added to all treatments to a final concentration of 1 µM and FACS analysis was performed using a FACS Canto II (BD biosciences) using the FITC settings. Analysis was performed using Weasel V3.0 (Walter and Eliza Hall Institute of Medical Research)."}, "S. cerevisiae [3]": {"system": "S. cerevisiae", "assay": "Growth inhibition in varying NaCl (checkerboard)", "format": "cell-based, Saccharomyces cerevisiae", "details": "1/2 PDB; for Effect of increasing NaCl concentration on growth inhibitory activity: NaCl checkerboard up to about 100 mM, representative of three independent replicates", "method": "(§3) Antifungal assays were performed as described in ([Bleackley et al., 2014]). S. cerevisiae cells were prepared by diluting to an OD600 = 0.01 and C. albicans cells were diluted to OD600 = 0.0002 in ½ strength potato dextrose broth (1/2 PDB) (Becton Dickinson). Assays investigating the combined effect of chemical cell wall synthesis inhibitors with defensins were performed as described in ([Bleackley et al., 2017]). Synergy was assessed using the fractional inhibitory concentration (FIC) equation. FIC=MICAcombination/MICAalone+MICBcombination/MICBalone\n(§4) Synergy is defined as an FIC value of less than 0.5. Assays investigating the activity of defensins in salt were set up using the same checkerboard method as the synergy assays but with NaCl in place of one of the antifungal molecules."}, "S. cerevisiae fks1Δ": {"system": "S. cerevisiae fks1Δ", "assay": "Antifungal growth assay, 1,3-β-glucan synthase deletion strain", "format": "cell-based, Saccharomyces cerevisiae", "details": "1/2 PDB, twofold dilution series, lowest concentration with no visible growth, three independent experiments", "method": "(§5) Saccharomyces cerevisiae deletion strains were retrieved from the haploid non-essential deletion collection (ThermoScientific) and were isogenic with the wild type BY4741 (MATa his3Δ1 leu2Δ0 met15Δ0 ura3Δ0). Candida albicans experiments were performed with strain ATCC90028.\nas §3"}, "[4]": {"assay": "Polysaccharide binding (solution depletion) to yeast β-glucan", "details": "one-site binding model", "method": "as §1"}, "S. cerevisiae BY4741 [5]": {"system": "S. cerevisiae BY4741", "assay": "Survival assay in the presence of exogenous 1,3-β-glucan (laminarin)", "format": "cell-based, Saccharomyces cerevisiae", "details": "plated on YPD agar; for Laminarin concentration protecting against the antifungal activity of NaD1: 20 µM NaD1, 1 h", "method": "To assess the effect of exogenous 1,3-β-glucan on the activity of NaD1, a survival assay was employed essentially as described in ([Bleackley et al., 2017]). A two-fold dilution series of laminarin (Sigma) from 50 mg/mL was prepared in MilliQ H2O and 10 µL of each concentration plus a no laminarin control were transferred to the wells of a U-bottom 96 well microtitre plate (Greiner Bio-one). NaD1 (10 µL of 200 µM solution) was added to each laminarin preparation. Controls with no NaD1 or laminarin were also prepared. An overnight culture of S. cerevisiae BY4741 cells was diluted to OD600 = 0.1 in ½ PDB. The diluted yeast cell suspension was then added to each of the wells of the microtitre plate and incubated at 30 °C with shaking at 750 rpm in a Thermomixer (Eppendorff) for 1 h. A fivefold dilution series of each treatment was then spotted onto YPD agar (1% yeast extract, 2% peptone, 2% dextrose, 2% agar) and incubated at 30 °C prior to imaging."}, "S. cerevisiae chs3Δ": {"system": "S. cerevisiae chs3Δ", "assay": "Antifungal growth assay, chitin synthase deletion strain", "format": "cell-based, Saccharomyces cerevisiae", "details": "1/2 PDB, twofold dilution series, lowest concentration with no visible growth, three independent experiments", "method": "as §5, §3"}, "yeast spheroplasts": {"system": "yeast spheroplasts", "assay": "Cell death of spheroplasts, SYTOX green flow cytometry", "format": "cell-based, Saccharomyces cerevisiae", "method": "as §2"}, "S. cerevisiae BY4741 [6]": {"system": "S. cerevisiae BY4741", "assay": "Antifungal growth assay, wild type", "format": "cell-based, Saccharomyces cerevisiae", "details": "1/2 PDB, twofold dilution series, lowest concentration with no visible growth, three independent experiments", "method": "as §5, §3"}, "[7]": {"assay": "Polysaccharide binding (solution depletion) to cellulose", "details": "SDS-PAGE analysis of supernatant, 3 independent experiments", "method": "as §1, with “Samples (20 µL) were loaded onto a 10% NOVEX Bolt BisTris gel (Life Technologies). Proteins were visualized by staining with RAPIDstain (Calbiochem) and imaged on a ChemiDoc (Bio-Rad).” left out, “Relative binding to the pellet was inferred as the amount of defensin that had been depleted from the supernatant (1-relative binding to pellet). All experiments were performed in triplicate.” left out"}, "C. albicans": {"system": "C. albicans", "assay": "Checkerboard synergy assay with polysaccharide synthesis inhibitors", "format": "cell-based, Candida albicans", "details": "for MIC: Candida albicans, read-out: MIC of polysaccharide synthesis inhibitor alone", "method": "as §5, §3, §4"}, "S. cerevisiae [8]": {"system": "S. cerevisiae", "assay": "Checkerboard synergy assay with polysaccharide synthase inhibitors", "format": "cell-based, Saccharomyces cerevisiae", "details": "average of three independent experiments ± standard deviation, synergy FIC <0.5", "method": "as §3, §4"}, "[9]": {"details": "insoluble polysaccharide in PBS, 30 min room temperature, SDS-PAGE densitometry of supernatant, Kd based on concentration of monosaccharide units, ± SEM, three independent replicates"}, "[10]": {"details": "solution depletion, SDS-PAGE densitometry, polysaccharide mass concentration, 3 independent experiments"}, "[11]": {"details": "C. albicans checkerboard, synergy defined as FIC < 0.5"}}}
{"molecule": "NaD1: plant defensin from the ornamental tobacco Nicotiana alata, isolated from flowers (RECKTESNTFPGICITKPPCRKACISEKFTDGHCSKILRRCLCTKPC; UniProt Q8GTM0 26-72, looked up)", "values": [{"measurement": "Kd", "setting": "[1]; [9]", "value": "33 ± 11.8", "unit": "mM"}, {"measurement": "Kd, chitin", "setting": "[1]; [10]", "value": "6.7 ± 2.4", "unit": "mg/mL"}, {"measurement": "Effect on cell death", "setting": "[2]; 1 M sorbitol with 100 mM NaCl, up to 10 µM NaD1, SYTOX green", "value": "unaffected"}, {"measurement": "Cell death (SYTOX green)", "setting": "[2]; NaD1 5 µM, 1/2 PDB with 1 M sorbitol, 30 °C 30 min", "value": 60, "unit": "%"}, {"measurement": "Effect of increasing NaCl concentration on growth inhibitory activity", "setting": "S. cerevisiae [3]", "value": "progressively poorer inhibitor"}, {"measurement": "MIC", "setting": "S. cerevisiae fks1Δ", "value": 1.25, "unit": "µM"}, {"measurement": "Kd", "setting": "[4]; [9]", "value": "25.9 ± 5", "unit": "mM"}, {"measurement": "Kd, β-glucan", "setting": "[4]; [10]", "value": "4.2 ± 0.8", "unit": "mg/mL"}, {"measurement": "Survival of yeast cells", "setting": "S. cerevisiae BY4741 [5]; 20 µM NaD1, absence of laminarin, 1 h", "value": "eliminated all viable yeast cells"}, {"measurement": "MIC", "setting": "S. cerevisiae chs3Δ", "value": 2.5, "unit": "µM"}, {"measurement": "NaD1 concentration giving significant cell death", "setting": "yeast spheroplasts; 1 M sorbitol with 100 mM NaCl, SYTOX green", "value": "≥ 0.313", "unit": "µM"}, {"measurement": "Cell death (SYTOX green)", "setting": "yeast spheroplasts; NaD1 concentrations above 0.625 µM, 1/2 PDB with 1 M sorbitol, 30 °C 30 min", "value": "over 60%"}, {"measurement": "MIC", "setting": "S. cerevisiae BY4741 [6]", "value": 2.5, "unit": "µM"}, {"measurement": "Binding to cellulose", "setting": "[7]", "value": "did not bind"}, {"measurement": "FIC in combination with caspofungin", "setting": "C. albicans; [11]", "value": 0.3}, {"measurement": "FIC in combination with nikkomycin Z", "setting": "C. albicans; [11]", "value": 0.92}, {"measurement": "FIC in combination with caspofungin", "setting": "S. cerevisiae [8]", "value": "0.3 ± 0.06"}]}
{"molecule": "C[C@@H]([C@H](N)C(=O)N[C@H](C(=O)O)[C@H]1O[C@@H](n2ccc(=O)[nH]c2=O)[C@H](O)[C@@H]1O)[C@H](O)c1ccc(O)cn1", "note": "[nikkomycin Z, reference compound]", "values": [{"measurement": "MIC", "setting": "C. albicans", "value": 2.5, "unit": "µg/mL"}]}
{"molecule": "CC[C@H](C)C[C@H](C)CCCCCCCCC(=O)N[C@H]1C[C@@H](O)[C@@H](NCCN)NC(=O)[C@@H]2[C@@H](O)CCN2C(=O)[C@H]([C@H](O)CCN)NC(=O)[C@H]([C@H](O)[C@@H](O)c2ccc(O)cc2)NC(=O)[C@@H]2C[C@@H](O)CN2C(=O)[C@H]([C@@H](C)O)NC1=O", "note": "[caspofungin, reference compound]", "values": [{"measurement": "MIC", "setting": "C. albicans", "value": 0.25, "unit": "µg/mL"}]}
{"molecule": "laminarin", "values": [{"measurement": "Laminarin concentration protecting against the antifungal activity of NaD1", "setting": "S. cerevisiae BY4741 [5]", "value": "≥ 1.25", "unit": "mg/mL"}, {"measurement": "Laminarin concentration protecting against the antifungal activity of NaD1", "setting": "S. cerevisiae BY4741 [5]; listed as Laminarin", "value": "above 1.25 mg/mL"}]}
{"molecule": "DmAMP1: defensin from Dahlia merckii expressed in Pichia pastoris (ELCEKASKTWSGNCGNTGHCDNQCKSWEGAAHGACHVRNGKHMCFCYFNC; UniProt P0C8Y4 1-50, looked up)", "values": [{"measurement": "Kd, chitin", "setting": "[1]; [9]", "value": "Neither TsD10 nor DmAMP1 bound"}, {"measurement": "Effect of increasing NaCl concentration on growth inhibitory activity", "setting": "S. cerevisiae [3]", "value": "no loss of growth inhibitory activity"}, {"measurement": "Concentration completely inhibiting growth", "setting": "S. cerevisiae [3]; absence of added NaCl, absorbance at 595 nm", "value": 0.313, "unit": "µM"}, {"measurement": "MIC", "setting": "S. cerevisiae fks1Δ", "value": 0.16, "unit": "µM"}, {"measurement": "Kd, β-glucan", "setting": "[4]; [9]", "value": "No binding"}, {"measurement": "MIC", "setting": "S. cerevisiae chs3Δ", "value": 0.31, "unit": "µM"}, {"measurement": "MIC", "setting": "S. cerevisiae BY4741 [6]", "value": 0.31, "unit": "µM"}, {"measurement": "FIC in combination with caspofungin", "setting": "S. cerevisiae [8]", "value": "0.6 ± 0.06"}, {"measurement": "FIC in combination with nikkomycin", "setting": "S. cerevisiae [8]", "value": "0.64 ± 0.16"}]}
